Results reported in the supplement of paper PMC11208160.

Assay: recombinant barcode read abundance after kanamycin selection (control-corrected) (log10(CPM+1)); higher = more efficient recombination; sequences stand for … in AGTGCAGAGAAAATCGGCCAGTTTTCTCTGCCTGCAGTCCGCATGCCGT…AGATTTATGCAGCGGACTGCCTTTCTCCCAAAGTGATAAACCGGACAGTATCATGGACCGGTTTTCCCGGTAATCCGTATTTGCAAGGTTGGTTTCACT; site = the 11-nt target
Procedure: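 Pooled E. coli target-specificity screen for the IS621 bridge recombinase. Each library plasmid pairs an 11-nt target (CT core) with a bridge RNA whose target-binding loop (9-nt LTG + 4-nt RTG) is reprogrammed; the rest of the 177-nt WT IS621 bridge RNA scaffold is fixed. The plasmid is co-electroporated with a WT donor plasmid; recombinase is induced with 0.1 mM IPTG and recombinants are selected on kanamycin. Recombinant barcodes are sequenced, converted to CPM, averaged over two biological replicates and corrected by the unselected control CPM. Molecule = full bridge RNA written as DNA: LTG = specificity nt 1-9, RTG = reverse complement of specificity nt 8-11, in the WT scaffold.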
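Further: IS621 recombinase and bridge RNA in Escherichia coli cells.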

AAGACCTCTTGGGTTCTAACCTGTTGCCT (site TAGACCTCTAG)
recombinant barcode read abundance (log10): 1.29

AAGATACCTTGGGTTCTAACCTGTTGCCT (site AAGATACCTAG)
recombinant barcode read abundance (log10): 2.23

AAGATACCTTGGGTTCTAACCTGTTGCCT (site ATGATACCTAG)
recombinant barcode read abundance (log10): 0.0427

AAGCACTCTTGGGTTCTAACCTGTTGCCT (site AAGCAATCTAG)
recombinant barcode read abundance (log10): 0.195

AAGCACTCTTGGGTTCTAACCTGTTGCCT (site AAGCACTCTAG)
recombinant barcode read abundance (log10): 2.58

AAGCACTCTTGGGTTCTAACCTGTTGCCT (site AAGCAGTCTAG)
recombinant barcode read abundance (log10): 0.107

AAGCACTCTTGGGTTCTAACCTGTTGCCT (site AAGCATTCTAG)
recombinant barcode read abundance (log10): 0

AAGCAGTCTTGGGTTCTAACCTGTTGCCT (site AAGCAATCTAG)
recombinant barcode read abundance (log10): 0.44

AAGCAGTCTTGGGTTCTAACCTGTTGCCT (site AAGCACTCTAG)
recombinant barcode read abundance (log10): 0.206

AAGCAGTCTTGGGTTCTAACCTGTTGCCT (site AAGCAGTCTAG)
recombinant barcode read abundance (log10): 2.5

AAGCAGTCTTGGGTTCTAACCTGTTGCCT (site AAGCATTCTAG)
recombinant barcode read abundance (log10): 0.162

AAGCATCCTTGGGTTCTAACCTGTTGCCT (site AAGCATCCTAG)
recombinant barcode read abundance (log10): 1.07

AAGCATCCTTGGGTTCTAACCTGTTGCCT (site ACGCATCCTAG)
recombinant barcode read abundance (log10): 0.192

AAGCATCCTTGGGTTCTAACCTGTTGCCT (site AGGCATCCTAG)
recombinant barcode read abundance (log10): 0.358

AAGCATCCTTGGGTTCTAACCTGTTGCCT (site ATGCATCCTAG)
recombinant barcode read abundance (log10): 0.00873

AAGCATTCTTGGGTTCTAACCTGTTGCCT (site AAGCAATCTAG)
recombinant barcode read abundance (log10): 0.379

AAGCATTCTTGGGTTCTAACCTGTTGCCT (site AAGCACTCTAG)
recombinant barcode read abundance (log10): 0.111

AAGCATTCTTGGGTTCTAACCTGTTGCCT (site AAGCAGTCTAG)
recombinant barcode read abundance (log10): 0.254

AAGCATTCTTGGGTTCTAACCTGTTGCCT (site AAGCATTCTAG)
recombinant barcode read abundance (log10): 1.81

AAGCGCTCTTGGGTTCTAACCTGTTGCTG (site AAGCGCTCTCA)
recombinant barcode read abundance (log10): 2.39

AAGCGCTCTTGGGTTCTAACCTGTTGCTG (site TTCTATGCTAC)
recombinant barcode read abundance (log10): 0.542

AAGCGTACTTGGGTTCTAACCTGTTGCCT (site AAGCGTACTAG)
recombinant barcode read abundance (log10): 1.92

AAGCGTACTTGGGTTCTAACCTGTTGCCT (site AAGCGTCCTAG)
recombinant barcode read abundance (log10): 0.141

AAGCGTACTTGGGTTCTAACCTGTTGCCT (site AAGCGTGCTAG)
recombinant barcode read abundance (log10): 0.0421

AAGCGTACTTGGGTTCTAACCTGTTGCCT (site AAGCGTTCTAG)
recombinant barcode read abundance (log10): 0.128

AAGCGTGCTTGGGTTCTAACCTGTTGCCT (site AAGCGTACTAG)
recombinant barcode read abundance (log10): 1.38

AAGCGTGCTTGGGTTCTAACCTGTTGCCT (site AAGCGTCCTAG)
recombinant barcode read abundance (log10): 0.197

AAGCGTGCTTGGGTTCTAACCTGTTGCCT (site AAGCGTGCTAG)
recombinant barcode read abundance (log10): 1.7

AAGCGTGCTTGGGTTCTAACCTGTTGCCT (site AAGCGTTCTAG)
recombinant barcode read abundance (log10): 0.216

AAGCGTTCTTGGGTTCTAACCTGTTGCCT (site AAGCGTACTAG)
recombinant barcode read abundance (log10): 0.0209

AAGCGTTCTTGGGTTCTAACCTGTTGCCT (site AAGCGTCCTAG)
recombinant barcode read abundance (log10): 0.111

AAGCGTTCTTGGGTTCTAACCTGTTGCCT (site AAGCGTGCTAG)
recombinant barcode read abundance (log10): 0.0909

AAGCGTTCTTGGGTTCTAACCTGTTGCCT (site AAGCGTTCTAG)
recombinant barcode read abundance (log10): 1.54

AAGCTGCCTTGGGTTCTAACCTGTTGCCT (site AAGCTGCCTAG)
recombinant barcode read abundance (log10): 1.49

AAGCTGCCTTGGGTTCTAACCTGTTGCCT (site GAGCTGCCTAA)
recombinant barcode read abundance (log10): 0.049

AAGGAACCTTGGGTTCTAACCTGTTGCCT (site AAGGAACCTAG)
recombinant barcode read abundance (log10): 2.59

AAGGAACCTTGGGTTCTAACCTGTTGCCT (site CAGGAACCTAG)
recombinant barcode read abundance (log10): 1.23

AAGGAACCTTGGGTTCTAACCTGTTGCCT (site GAGGAACCTAG)
recombinant barcode read abundance (log10): 0.951

AAGGAACCTTGGGTTCTAACCTGTTGCCT (site TAGGAACCTAG)
recombinant barcode read abundance (log10): 2.11

AAGGAGACTTGGGTTCTAACCTGTTGCCT (site AAAGGGACTAG)
recombinant barcode read abundance (log10): 0.116

AAGGAGACTTGGGTTCTAACCTGTTGCCT (site AAGGAGACTAG)
recombinant barcode read abundance (log10): 2.12

AAGGCTTCTTGGGTTCTAACCTGTTGCCT (site AAGGCTACTAG)
recombinant barcode read abundance (log10): 0.171

AAGGCTTCTTGGGTTCTAACCTGTTGCCT (site AAGGCTTCTAG)
recombinant barcode read abundance (log10): 1.4

AAGGGGTCTTGGGTTCTAACCTGTTGCCT (site AAGGGGTCTAG)
recombinant barcode read abundance (log10): 2.93

AAGGGGTCTTGGGTTCTAACCTGTTGCCT (site TACGGGTCTAG)
recombinant barcode read abundance (log10): 0.112

AAGGTCCCTTGGGTTCTAACCTGTTGCCA (site AAGGTCCCTTG)
recombinant barcode read abundance (log10): 1.85

AAGGTCCCTTGGGTTCTAACCTGTTGCCA (site AAGGTTCCTTA)
recombinant barcode read abundance (log10): 0.0911

AAGTCGTCTTGGGTTCTAACCTGTTGCCT (site AAGTCGTCTAG)
recombinant barcode read abundance (log10): 0.832

AAGTCGTCTTGGGTTCTAACCTGTTGCCT (site ACGTCGTCTAG)
recombinant barcode read abundance (log10): 0.0906

AAGTCGTCTTGGGTTCTAACCTGTTGCCT (site AGGTCGTCTAG)
recombinant barcode read abundance (log10): 0.126

AAGTCGTCTTGGGTTCTAACCTGTTGCCT (site ATGTCGTCTAG)
recombinant barcode read abundance (log10): 0.0249

AAGTCGTCTTGGGTTCTAACCTGTTGCTA (site AAGTCGTCTTA)
recombinant barcode read abundance (log10): 0.857

AAGTCGTCTTGGGTTCTAACCTGTTGCTA (site GCAATTGCTAG)
recombinant barcode read abundance (log10): 0.132

AAGTGCTCTTGGGTTCTAACCTGTTGCCG (site AAGTGCTCTCG)
recombinant barcode read abundance (log10): 1.89

AAGTGCTCTTGGGTTCTAACCTGTTGCCG (site AGGTGCCCTCG)
recombinant barcode read abundance (log10): 0.0892

AAGTTTCCTTGGGTTCTAACCTGTTGCAT (site AAGTGTCCTAT)
recombinant barcode read abundance (log10): 0.118

AAGTTTCCTTGGGTTCTAACCTGTTGCAT (site AAGTTTCCTAT)
recombinant barcode read abundance (log10): 0.22

AATAACTCTTGGGTTCTAACCTGTTGCCT (site AATAACTCTAG)
recombinant barcode read abundance (log10): 0.863

AATAACTCTTGGGTTCTAACCTGTTGCCT (site CATAACTCTAG)
recombinant barcode read abundance (log10): 0.0701

AATAACTCTTGGGTTCTAACCTGTTGCCT (site GATAACTCTAG)
recombinant barcode read abundance (log10): 0.111

AATAACTCTTGGGTTCTAACCTGTTGCCT (site TATAACTCTAG)
recombinant barcode read abundance (log10): 0.139

AATAAGTCTTGGGTTCTAACCTGTTGCCT (site AATAAGTCTAG)
recombinant barcode read abundance (log10): 0.483

AATAAGTCTTGGGTTCTAACCTGTTGCCT (site ACTAAGTCTAG)
recombinant barcode read abundance (log10): 0.0757

AATAAGTCTTGGGTTCTAACCTGTTGCCT (site AGTAAGTCTAG)
recombinant barcode read abundance (log10): 0.566

AATAAGTCTTGGGTTCTAACCTGTTGCCT (site ATTAAGTCTAG)
recombinant barcode read abundance (log10): 0.122

AATAGAGCTTGGGTTCTAACCTGTTGCAG (site AAGTGAGCTCT)
recombinant barcode read abundance (log10): 0.0557

AATAGAGCTTGGGTTCTAACCTGTTGCAG (site AATAGAGCTCT)
recombinant barcode read abundance (log10): 2.23

AATAGGACTTGGGTTCTAACCTGTTGCTA (site AATAAGACTTG)
recombinant barcode read abundance (log10): 0.0927

AATAGGACTTGGGTTCTAACCTGTTGCTA (site AATAGGACTTA)
recombinant barcode read abundance (log10): 0.896

AATAGGGCTTGGGTTCTAACCTGTTGCGG (site AATAGGGCTCC)
recombinant barcode read abundance (log10): 2.21

AATAGGGCTTGGGTTCTAACCTGTTGCGG (site ACTAGGGCTCC)
recombinant barcode read abundance (log10): 0.294

AATCGGCCTTGGGTTCTAACCTGTTGCGT (site AATAGGCCTAC)
recombinant barcode read abundance (log10): 0.375

AATCGGCCTTGGGTTCTAACCTGTTGCGT (site AATCGGCCTAC)
recombinant barcode read abundance (log10): 1.85

AATCGGCCTTGGGTTCTAACCTGTTGCGT (site AATGGGCCTAC)
recombinant barcode read abundance (log10): 0.0625

AATCGGCCTTGGGTTCTAACCTGTTGCGT (site AATTGGCCTAC)
recombinant barcode read abundance (log10): 0.175

AATGCTACTTGGGTTCTAACCTGTTGCAT (site AATGCTACTAT)
recombinant barcode read abundance (log10): 0.235

AATGCTACTTGGGTTCTAACCTGTTGCAT (site TATGCTACTAT)
recombinant barcode read abundance (log10): 0.238

AATGCTCCTTGGGTTCTAACCTGTTGCGT (site AATGCTCCTAA)
recombinant barcode read abundance (log10): 0.116

AATGCTCCTTGGGTTCTAACCTGTTGCGT (site AATGCTCCTAC)
recombinant barcode read abundance (log10): 2.03

AATGCTCCTTGGGTTCTAACCTGTTGCGT (site AATGCTCCTAG)
recombinant barcode read abundance (log10): 0.419

AATGCTCCTTGGGTTCTAACCTGTTGCGT (site AATGCTCCTAT)
recombinant barcode read abundance (log10): 0.177

AATGCTCCTTGGGTTCTAACCTGTTGCTT (site AATGCTCCTAA)
recombinant barcode read abundance (log10): 0.49
